Data as given in US20010049450A1 (priority 2000, published 2001).
Structures can show the parent of a compound that is named as a salt.

Tests used:
[1] = Crystal particle size distribution and average particle size (SHIMADZU SALD1100, medium diisopropyl ether); format: physicochemical; details: for average particle size: average diameter upon conversion of particle volume into sphere; for average particle size / crystal particle size distribution: not less than 10 μm and less than 20 μm / crystal particle size distribution: not less than 20 μm and less than 40 μm / crystal particle size distribution: less than 5 μm / crystal particle size distribution: not less than 40 μm: hydrobromide; for crystal particle size distribution: not less than 10 μm and less than 20 μm: fraction of crystals with 10 μm ≦ D < 20 μm; for crystal particle size distribution: not less than 20 μm and less than 40 μm: fraction of crystals with 20 μm ≦ D < 40 μm; for crystal particle size distribution: less than 5 μm: fraction of crystals with D < 5 μm; for crystal particle size distribution: not less than 40 μm: fraction of crystals with D ≧ 40 μm
Description: The average particle size in the present invention is an average diameter upon conversion of the volume of the crystal particles into sphere. The powder X-ray crystal diffraction and average particle size were measured in the following Reference Example, Examples and Comparative Example, according to the following methods. Average particle size: SHIMADZU CORPORATION SALD1100 (medium:diisopropyl ether)

[2] = Bulk density and tap density of crystals; format: physicochemical

Compound | average particle size [1] [μm] | crystal particle size distribution: not less than 10 μm and less than 20 μm [1] | crystal particle size distribution: not less than 20 μm and less than 40 μm [1] | crystal particle size distribution: less than 5 μm [1] | crystal particle size distribution: not less than 40 μm [1] | bulk density [2] [g/mL] | tap density [2] [g/mL] | fine crystals having a particle size of less than 5 μm (of the total amount) ([1]; crystallized according to the method of U.S. Pat. No. 4,650,884) [%]
CN(C)CCCC1(c2ccc(F)cc2)OCc2cc(C#N)ccc21 (single isomer, unassigned) [Example 1, citalopram hydrobromide] | 12.9 | 29.1% | 27.0% | 17.1% | 4.6% |  |  | 
CN(C)CCCC1(c2ccc(F)cc2)OCc2cc(C#N)ccc21 (single isomer, unassigned) [Example 4, citalopram hydrobromide] | 23.8 | 20.9% | 31.7% | 9.6% | 25.5% |  |  | 
CN(C)CCCC1(c2ccc(F)cc2)OCc2cc(C#N)ccc21 (centres unmarked) [Comparative Example 1, citalopram hydrobromide, reference compound] | 6.3 | 23.9% | 4.0% | 41.9% | 0% |  |  | 
CN(C)CCCC1(c2ccc(F)cc2)OCc2cc(C#N)ccc21 (centres unmarked) [Example 2, citalopram hydrobromide] | 7.8 | 25.7% | 12.2% | D < 5 μm 31.4% | D ≧ 40 μm 0.3% |  |  | 
CN(C)CCCC1(c2ccc(F)cc2)OCc2cc(C#N)ccc21 (centres unmarked) [Example 3, citalopram hydrobromide] | 11.0 | 31.0% | 21.6% | D < 5 μm 19.6% | D ≧ 40 μm 1.6% |  |  | 

The remaining lines, values ahead:

average particle size [1] [μm] | crystal particle size distribution: not less than 10 μm and less than 20 μm [1] | crystal particle size distribution: not less than 20 μm and less than 40 μm [1] | crystal particle size distribution: less than 5 μm [1] | crystal particle size distribution: not less than 40 μm [1] | bulk density [2] [g/mL] | tap density [2] [g/mL] | fine crystals having a particle size of less than 5 μm (of the total amount) ([1]; crystallized according to the method of U.S. Pat. No. 4,650,884) [%] | Compound
14.6 | 35.5% | 29.3% | 12.6% | 2.4% | 0.2 | 0.42 |  | CN(C)CCCC1(c2ccc(F)cc2)OCc2cc(C#N)ccc21 (single isomer, unassigned) [Example 6, citalopram hydrobromide]
15.1 | 10 μm ≦ D < 20 μm 26.9% | 20 μm ≦ D < 40 μm 31.0% | D < 5 μm 15.6% | D ≧ 40 μm 7.2% (shown |  |  |  | CN(C)CCCC1(c2ccc(F)cc2)OCc2cc(C#N)ccc21 (centres unmarked) [Example 5, citalopram hydrobromide]
 |  |  |  |  |  |  | 41.9 | CN(C)CCCC1(c2ccc(F)cc2)OCc2cc(C#N)ccc21 (centres unmarked) [citalopram hydrobromide, reference compound]
